Experimental data reported in the supplement of paper PMC10307832.

Columns and labels:
Assay in all cases: relative viability (nuclei count vs DMSO), 5 days (fraction); higher = more cells survive
[1] = tested on: NCI-H1666
Procedure, shortened: (§1)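 A single step with final 0.05% Triton X-100, 1% formaldehyde and 1 ug/ml Hoechst fixed the cells and stained nuclei 5 days after treatment. Lung cancer cell lines in 1536-well plates had been treated by pin tool the day after seeding with one drug alone or a fixed anchor-drug dose plus five library-drug doses (not always all listed) in √10 steps, and nuclei were counted on 4× images. Relative viability is the ratio of nuclei in treated wells to nuclei in vehicle wells, taken as the median of duplicate plates.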

[2] = tested on: NCI-H1650
Procedure, shortened: as §1

[3] = tested on: NCI-H2170
Procedure, shortened: as §1

[4] = tested on: SW 900
Procedure, shortened: as §1

[5] = tested on: EKVX
Procedure, shortened: as §1

[6] = tested on: PC-14
Procedure, shortened: as §1

[7] = tested on: HCC-366
Procedure, shortened: as §1

[8] = tested on: CAL-12T
Procedure, shortened: as §1

[9] = tested on: NCI-H727
Procedure, shortened: as §1

[10] = tested on: NCI-H441
Procedure, shortened: as §1

[11] = tested on: ABC-1
Procedure, shortened: as §1

[12] = tested on: NCI-H460
Procedure, shortened: as §1

[13] = tested on: NCI-H661
Procedure, shortened: as §1

[14] = tested on: NCI-H1437
Procedure, shortened: as §1

[15] = tested on: LK-2
Procedure, shortened: as §1

[16] = tested on: HARA
Procedure, shortened: as §1

[17] = tested on: 201T
Procedure, shortened: as §1

[18] = tested on: NCI-H3122
Procedure, shortened: as §1

[19] = tested on: COR-L 105
Procedure, shortened: as §1

[20] = tested on: BEN
Procedure, shortened: as §1

[21] = tested on: NCI-H2009
Procedure, shortened: as §1

[22] = tested on: LOU-NH91
Procedure, shortened: as §1

Q: Which relative viability ([1]; first compound 0.005 µM) does the source give for `COc1cc2nccc(Oc3ccc(NC(=O)Nc4cc(C)on4)c(Cl)c3)c2cc1OC` [Tivozanib] + N=C(N)NC(=N)NCCc1ccccc1 [Phenformin] (partner 250 µM) here?
A: 0.507

Q: And the relative viability ([1]; first compound 0.01581 µM)?
A: 0.553

Q: What about the relative viability ([1]; first compound 0.05 µM) of the same compound?
A: 0.579

Q: And the relative viability ([1]; first compound 0.1581 µM)?
A: 0.569

Q: What about the relative viability ([1]; first compound 0.5 µM) of the same compound?
A: 0.582

Q: And the relative viability ([2]; first compound 0.005 µM)?
A: 0.454

Q: And the relative viability ([2]; first compound 0.01581 µM)?
A: 0.515

Q: What about the relative viability ([2]; first compound 0.05 µM) of the same compound?
A: 0.486

Q: And the relative viability ([2]; first compound 0.1581 µM)?
A: 0.497

Q: What about the relative viability ([2]; first compound 0.5 µM) of the same compound?
A: 0.353

Q: And the relative viability ([3]; first compound 0.005 µM)?
A: 0.413

Q: What about the relative viability ([3]; first compound 0.01581 µM) of the same compound?
A: 0.42

Q: And the relative viability ([3]; first compound 0.05 µM)?
A: 0.395

Q: And the relative viability ([3]; first compound 0.1581 µM)?
A: 0.424

Q: What about the relative viability ([3]; first compound 0.5 µM) of the same compound?
A: 0.421

Q: And the relative viability ([4]; first compound 0.005 µM)?
A: 0.554

Q: What about the relative viability ([4]; first compound 0.01581 µM) of the same compound?
A: 0.71

Q: And the relative viability ([4]; first compound 0.05 µM)?
A: 0.731

Q: And the relative viability ([4]; first compound 0.1581 µM)?
A: 0.492

Q: What about the relative viability ([4]; first compound 0.5 µM) of the same compound?
A: 0.524

Q: What about the relative viability ([5]; first compound 0.005 µM) of the same compound?
A: 0.214

Q: What about the relative viability ([5]; first compound 0.01581 µM) of the same compound?
A: 0.228

Q: What about the relative viability ([5]; first compound 0.05 µM) of the same compound?
A: 0.232

Q: What about the relative viability ([5]; first compound 0.1581 µM) of the same compound?
A: 0.243

Q: What about the relative viability ([5]; first compound 0.5 µM) of the same compound?
A: 0.236

Q: And the relative viability ([6]; first compound 0.005 µM)?
A: 0.443

Q: And the relative viability ([6]; first compound 0.01581 µM)?
A: 0.656

Q: What about the relative viability ([6]; first compound 0.05 µM) of the same compound?
A: 0.588

Q: And the relative viability ([6]; first compound 0.1581 µM)?
A: 0.611

Q: And the relative viability ([6]; first compound 0.5 µM)?
A: 0.501

Q: What about the relative viability ([7]; first compound 0.005 µM) of the same compound?
A: 0.615

Q: And the relative viability ([7]; first compound 0.01581 µM)?
A: 0.588

Q: And the relative viability ([7]; first compound 0.05 µM)?
A: 0.632

Q: And the relative viability ([7]; first compound 0.1581 µM)?
A: 0.643

Q: What about the relative viability ([7]; first compound 0.5 µM) of the same compound?
A: 0.611

Q: And the relative viability ([8]; first compound 0.005 µM)?
A: 0.538

Q: And the relative viability ([8]; first compound 0.01581 µM)?
A: 0.554

Q: What about the relative viability ([8]; first compound 0.05 µM) of the same compound?
A: 0.494

Q: What about the relative viability ([8]; first compound 0.1581 µM) of the same compound?
A: 0.625

Q: What about the relative viability ([8]; first compound 0.5 µM) of the same compound?
A: 0.558

Q: What about the relative viability ([9]; first compound 0.005 µM) of the same compound?
A: 0.664

Q: And the relative viability ([9]; first compound 0.01581 µM)?
A: 0.489

Q: What about the relative viability ([9]; first compound 0.05 µM) of the same compound?
A: 0.439

Q: And the relative viability ([9]; first compound 0.1581 µM)?
A: 0.403

Q: What about the relative viability ([9]; first compound 0.5 µM) of the same compound?
A: 0.558

Q: And the relative viability ([10]; first compound 0.005 µM)?
A: 0.797

Q: What about the relative viability ([10]; first compound 0.01581 µM) of the same compound?
A: 0.782

Q: And the relative viability ([10]; first compound 0.05 µM)?
A: 0.823

Q: What about the relative viability ([10]; first compound 0.1581 µM) of the same compound?
A: 0.881

Q: What about the relative viability ([10]; first compound 0.5 µM) of the same compound?
A: 0.735

Q: And the relative viability ([11]; first compound 0.005 µM)?
A: 0.236

Q: What about the relative viability ([11]; first compound 0.01581 µM) of the same compound?
A: 0.246

Q: And the relative viability ([11]; first compound 0.05 µM)?
A: 0.268

Q: And the relative viability ([11]; first compound 0.1581 µM)?
A: 0.201

Q: And the relative viability ([11]; first compound 0.5 µM)?
A: 0.24

Q: And the relative viability ([12]; first compound 0.005 µM)?
A: 0.491

Q: What about the relative viability ([12]; first compound 0.01581 µM) of the same compound?
A: 0.537

Q: And the relative viability ([12]; first compound 0.05 µM)?
A: 0.509

Q: And the relative viability ([12]; first compound 0.1581 µM)?
A: 0.547

Q: What about the relative viability ([12]; first compound 0.5 µM) of the same compound?
A: 0.503

Q: And the relative viability ([13]; first compound 0.005 µM)?
A: 0.264

Q: And the relative viability ([13]; first compound 0.01581 µM)?
A: 0.277

Q: What about the relative viability ([13]; first compound 0.05 µM) of the same compound?
A: 0.277

Q: And the relative viability ([13]; first compound 0.1581 µM)?
A: 0.278

Q: And the relative viability ([13]; first compound 0.5 µM)?
A: 0.249

Q: What about the relative viability ([14]; first compound 0.005 µM) of the same compound?
A: 0.296

Q: And the relative viability ([14]; first compound 0.01581 µM)?
A: 0.289

Q: And the relative viability ([14]; first compound 0.05 µM)?
A: 0.316

Q: And the relative viability ([14]; first compound 0.1581 µM)?
A: 0.339

Q: And the relative viability ([14]; first compound 0.5 µM)?
A: 0.317

Q: And the relative viability ([15]; first compound 0.005 µM)?
A: 0.459

Q: And the relative viability ([15]; first compound 0.01581 µM)?
A: 0.457

Q: What about the relative viability ([15]; first compound 0.05 µM) of the same compound?
A: 0.512

Q: What about the relative viability ([15]; first compound 0.1581 µM) of the same compound?
A: 0.283

Q: What about the relative viability ([15]; first compound 0.5 µM) of the same compound?
A: 0.199

Q: And the relative viability ([16]; first compound 0.005 µM)?
A: 0.452

Q: And the relative viability ([16]; first compound 0.01581 µM)?
A: 0.41

Q: And the relative viability ([16]; first compound 0.05 µM)?
A: 0.424

Q: What about the relative viability ([16]; first compound 0.1581 µM) of the same compound?
A: 0.364

Q: What about the relative viability ([16]; first compound 0.5 µM) of the same compound?
A: 0.489

Q: What about the relative viability ([17]; first compound 0.005 µM) of the same compound?
A: 0.447

Q: What about the relative viability ([17]; first compound 0.01581 µM) of the same compound?
A: 0.405

Q: What about the relative viability ([17]; first compound 0.05 µM) of the same compound?
A: 0.423

Q: And the relative viability ([17]; first compound 0.1581 µM)?
A: 0.445

Q: What about the relative viability ([17]; first compound 0.5 µM) of the same compound?
A: 0.469

Q: And the relative viability ([18]; first compound 0.005 µM)?
A: 0.376

Q: What about the relative viability ([18]; first compound 0.01581 µM) of the same compound?
A: 0.419

Q: What about the relative viability ([18]; first compound 0.05 µM) of the same compound?
A: 0.383

Q: What about the relative viability ([18]; first compound 0.1581 µM) of the same compound?
A: 0.361

Q: And the relative viability ([18]; first compound 0.5 µM)?
A: 0.344

Q: And the relative viability ([19]; first compound 0.005 µM)?
A: 0.49

Q: And the relative viability ([19]; first compound 0.01581 µM)?
A: 0.482

Q: And the relative viability ([19]; first compound 0.05 µM)?
A: 0.558

Q: And the relative viability ([19]; first compound 0.1581 µM)?
A: 0.501

Q: And the relative viability ([19]; first compound 0.5 µM)?
A: 0.43

Q: And the relative viability ([20]; first compound 0.005 µM)?
A: 0.25

Q: And the relative viability ([20]; first compound 0.01581 µM)?
A: 0.279

Q: What about the relative viability ([20]; first compound 0.05 µM) of the same compound?
A: 0.224

Q: And the relative viability ([20]; first compound 0.1581 µM)?
A: 0.314

Q: What about the relative viability ([20]; first compound 0.5 µM) of the same compound?
A: 0.234

Q: What about the relative viability ([21]; first compound 0.005 µM) of the same compound?
A: 0.448

Q: What about the relative viability ([21]; first compound 0.01581 µM) of the same compound?
A: 0.473

Q: What about the relative viability ([21]; first compound 0.05 µM) of the same compound?
A: 0.453

Q: And the relative viability ([21]; first compound 0.1581 µM)?
A: 0.478

Q: What about the relative viability ([21]; first compound 0.5 µM) of the same compound?
A: 0.344

Q: What about the relative viability ([22]; first compound 0.005 µM) of the same compound?
A: 0.65

Q: And the relative viability ([22]; first compound 0.01581 µM)?
A: 0.667

Q: What about the relative viability ([22]; first compound 0.05 µM) of the same compound?
A: 0.748

Q: What about the relative viability ([22]; first compound 0.1581 µM) of the same compound?
A: 0.654

Q: What about the relative viability ([22]; first compound 0.5 µM) of the same compound?
A: 0.676
